{"source": "patent US9233109B2", "about": "“Compositions, methods of use, and methods of treatment” (UNIVERSITY OF FLORIDA RESEARCH FOUNDATION, INC., priority 2010, dated 2016)", "key": {"[1]": {"system": "α4(3)β2(2), α4(2)β2(3), α4(2)β2(2)α5 and α7 nAChR", "experiment": "Test of bupropion for receptor activation, oocytes", "format": "cell-based, human", "conditions": "300 nM to 300 μM"}, "α4β2α5 nAChR [2]": {"biological_target": "T1, α4β2α5 nAChR (Homo sapiens, UniProt P17787+P30532+P43681)", "T1 construct": "expressed in transfected cells; host or cells: Xenopus laevis oocytes injected with cRNA", "experiment": "Bupropion co-applied with ACh: inhibition of ACh-evoked responses, oocytes", "format": "cell-based", "conditions": "co-applied with 3 μM ACh"}, "α4(3)β2(2) nAChR": {"biological_target": "T2, α4(3)β2(2) nAChR (Homo sapiens, UniProt P17787+P43681)", "T2 construct": "expressed in transfected cells; host or cells: Xenopus laevis oocytes injected with cRNA", "experiment": "Bupropion co-applied with ACh: inhibition of ACh-evoked responses, oocytes", "format": "cell-based", "conditions": "co-applied with 30 μM ACh", "protocol": "(§1) Initial experiments were run for 50 minutes after the introduction of the experimental compounds into the bath."}, "α4(2)β2(3) nAChR": {"biological_target": "T3, α4(2)β2(3) nAChR (Homo sapiens, UniProt P17787+P43681)", "T3 construct": "expressed in transfected cells; host or cells: Xenopus laevis oocytes injected with cRNA", "experiment": "Bupropion co-applied with ACh: inhibition of ACh-evoked responses, oocytes", "format": "cell-based", "conditions": "co-applied with 10 μM ACh", "protocol": "as §1"}, "α7 nAChR [3]": {"biological_target": "T4, α7 nAChR (Homo sapiens, UniProt P36544)", "T4 construct": "expressed in transfected cells; host or cells: Xenopus laevis oocytes injected with cRNA", "experiment": "Bupropion co-applied with ACh: inhibition of ACh-evoked responses, oocytes", "format": "cell-based", "protocol": "as §1"}, "α7 nAChR [4]": {"biological_target": "T4, α7 nAChR", "experiment": "Bath application of test compound: modulation of ACh-evoked net charge responses in Xenopus oocytes", "format": "cell-based", "protocol": "(§2) We have extended this approach to defined receptor subtypes expressed in Xenopus oocytes. Experiments were conducted on cells expressing HS α4β2 (α4(2)β2(3)), LS α4β2 (α4(3)β2(2)), or α7 nAChR.\n(§3) cDNA: Human nAChR receptor clones and concatamers were obtained from Dr. Jon Lindstrom (University of Pennsylvania, Philadelphia Pa.). The human RIC-3 clone, obtained from Dr. Millet Treinin (Hebrew University, Jerusalem Israel), was co-injected with α7 to improve the levels and speed of receptor expression.\n(§4) Oocyte preparation: Oocytes were surgically removed from mature Xenopus laevis frogs and injected with 50 nl (5-20 ng) of appropriate nAChR subunit cRNAs as described previously (Horenstein et al., 2008).\n(§5) Experiments were conducted using OpusXpress 6000A (Molecular Devices, Union City Calif.) and analyzed as described previously (Papke and Papke, 2002; Horenstein et al., 2008; Papke and Stokes, 2010).\nas §1"}, "α4(2)β2(2)α5 nAChR": {"biological_target": "T5, α4(2)β2(2)α5 nAChR (Homo sapiens, UniProt P17787+P30532+P43681)", "T5 construct": "expressed in transfected cells; host or cells: Xenopus laevis oocytes injected with cRNA", "experiment": "Bath application of test compound: inhibition of ACh-evoked responses in Xenopus oocytes", "format": "cell-based", "protocol": "as §3, §4, §5, §1\n(§6) Recently, attention has been drawn to α5 as a member of a gene cluster associated with high risk for cancer and heavy smoking (Saccone et al., 2007). In the periphery, α5 is most likely expressed in association with the other members of its gene cluster, α3 and β4."}, "[5]": {"biological_target": "T6, HS α4β2 (α4(2)β2(3)) nAChR (Homo sapiens, UniProt P17787+P43681)", "T6 construct": "expressed in transfected cells; host or cells: Xenopus laevis oocytes injected with cRNA", "experiment": "Bath application of test compound: inhibition of ACh-evoked peak currents in Xenopus oocytes", "format": "cell-based", "protocol": "as §2, §3, §4, §5, §1"}, "[6]": {"biological_target": "T7, LS α4β2 (α4(3)β2(2)) nAChR (Homo sapiens, UniProt P17787+P43681)", "T7 construct": "expressed in transfected cells; host or cells: Xenopus laevis oocytes injected with cRNA", "experiment": "Bath application of test compound: inhibition of ACh-evoked peak currents in Xenopus oocytes", "format": "cell-based", "protocol": "as §2, §3, §4, §5, §1"}, "α4β2α5 nAChR [7]": {"biological_target": "T1, α4β2α5 nAChR", "experiment": "Agonist activation of α4β2α5 receptors in oocytes", "format": "cell-based", "from_the_text": "as §6"}, "human α7 receptors": {"biological_target": "human α7 receptors (Homo sapiens, UniProt P36544)", "conditions": "cited from earlier work"}, "[8]": {"conditions": "preliminary findings of clinical trials, schizophrenics; cited from earlier work"}, "α7 nAChR [9]": {"biological_target": "T4, α7 nAChR", "experiment": "Acute co-application of ACh and S 24795, model fit of net charge responses in oocytes", "format": "cell-based", "from_the_text": "FIG. 2.1 illustrates a model applied to the activation of nAChR by simultaneous co-applications of the full agonist “a” and a partial agonist “p”. […] The IMax of the full agonist is assigned a value of 1. The first and second terms of the equation represent the activation produced by the full agonist and partial agonists, respectively, scaled by their potencies and weighted by receptor availability. The third term allows noncompetitive effects of the partial agonist. If such noncompetitive activity is inhibitory, then ni is assigned a negative value.\nAcute responses to agonist/partial agonist applications were fit with a general non-linear regression model, implemented as an option in a Windows data analyses and graphical presentation program (CAS Data Forge). The terms na, np, ni, Rmaxp, Inmaxp, EC50a, EC50p, and IC50p were given starting estimates based on the data obtained with the drugs applied separately. Tolerance factor (typically 1×10^−5) range limits for each parameter were specified. […] A predicted matrix was then calculated for each cell of the matrix, based on the a and p concentrations, the set of parameters listed above, and the governing equation. The residuals across all cells were calculated, and an iterative process was utilized to revise the parameters to minimize the residuals and allow the estimates to be revised accordingly. When the difference of estimates for any given parameter for consecutive iterations fell below the tolerance factor, that parameter was fixed at the last estimate. When all parameters were fixed or no convergent solution was found, the process stopped, and the set of parameters representing the best fit along with the resulting matrix was provided.\nThe Imax for the full agonist was constrained to 1 while the Imax for the partial agonist was a free parameter <1.0.\nCurve fit values for the drugs when applied alone were used as seeds for the competitive interactions."}, "[10]": {"conditions": "read-out: IC50, inhibition of ACh-evoked responses by prolonged bath application"}, "[11]": {"conditions": "noncompetitive inhibition factor"}}, "note": "Where two headings read alike, the source gives them in different places.", "data": [{"compound": "CC(NC(C)(C)C)C(=O)c1cccc(Cl)c1", "note": "(centres unmarked) [bupropion]", "values": [{"measurement": "receptor activation by bupropion", "setting": "[1]", "result": "no activation above our level of detection"}, {"measurement": "Co-application n (Hill slope of inhibition)", "setting": "α4β2α5 nAChR [2]", "result": "−0.70 ± 0.04"}, {"measurement": "Co-application n (Hill slope of inhibition)", "setting": "α4(3)β2(2) nAChR", "result": "−0.93 ± 0.11"}, {"measurement": "Co-application n (Hill slope of inhibition)", "setting": "α4(2)β2(3) nAChR", "result": "−0.80 ± 0.05"}, {"measurement": "Co-application n (Hill slope of inhibition)", "setting": "α7 nAChR [3]; co-applied with 60 μM ACh", "result": "−0.74 ± 0.09"}, {"measurement": "IC50", "setting": "α7 nAChR [3]; read-out: Co-application IC50", "result": "46 ± 7", "unit": "µM"}, {"measurement": "Bath application n (Hill slope of inhibition)", "setting": "α7 nAChR [4]; 30 minutes in bath", "result": "−1.5 ± 0.5"}, {"measurement": "IC50", "setting": "α7 nAChR [4]; 30 minutes in bath, read-out: Bath application IC50", "result": "16 ± 3", "unit": "µM"}, {"measurement": "Bath application n (Hill slope of inhibition)", "setting": "α4(2)β2(2)α5 nAChR; 30 minutes in bath", "result": "−0.47 ± 0.09"}, {"measurement": "Bath application n (Hill slope of inhibition)", "setting": "[5]; 30 minutes in bath", "result": "−0.40 ± 0.10"}, {"measurement": "Bath application n (Hill slope of inhibition)", "setting": "[6]; 30 minutes in bath", "result": "−1.2 ± 0.4"}]}, {"compound": "c1cnc2cc3c(cc2n1)C1CNCC3C1", "note": "[Varenicline, 7,8,9,10-tetrahydro-6,10-methano-6H-pyrazino (2,3-h)(3) benzazepine]", "values": [{"measurement": "efficacy for α4β2α5 receptors, % that of ACh", "setting": "α4β2α5 nAChR [7]", "result": "9±1", "unit": "%"}, {"measurement": "inhibition at 1 µM", "setting": "α4(2)β2(2)α5 nAChR; read-out: inhibition of transient ACh-evoked responses", "result": 100, "unit": "%"}]}, {"compound": "COc1ccc(/C=C2\\CCCN=C2c2cccnc2)c(OC)c1", "note": "[GTS-21, 3-(2,4-dimethoxybenzylidene)anabaseine]", "values": [{"measurement": "EC50", "setting": "human α7 receptors; Papke and Papke, 2002, read-out: EC50 for transient receptor activation", "result": "~6", "unit": "µM"}, {"measurement": "efficacy for human α7 receptors, % that of ACh", "setting": "human α7 receptors", "result": "about 20%"}, {"measurement": "clinical ratings of negative symptoms", "setting": "[8]", "result": "improved clinical ratings of negative symptoms"}, {"measurement": "IC50", "setting": "α7 nAChR [4]", "result": 1.3, "unit": "µM"}, {"measurement": "IC50", "setting": "α7 nAChR [4]; Example 1, average of 30-40 min time points, 60 μM ACh, net charge, read-out: IC50, inhibition of ACh-evoked responses by prolonged bath application", "result": "1.2 ± 0.4", "unit": "µM"}, {"measurement": "α7 ACh-evoked responses above the baseline controls", "setting": "α7 nAChR [4]; bath application of 30 nM", "result": "37±15", "unit": "%"}, {"measurement": "bath concentrations at which α7 ACh-evoked responses were inhibited", "setting": "α7 nAChR [4]; long-term bath application, net charge", "result": "greater than 300 nM"}, {"measurement": "IC50", "setting": "[5]; [10]", "result": "0.17 ± 0.1", "unit": "µM"}, {"measurement": "IC50", "setting": "[6]; [10]", "result": "1 ± 0.4", "unit": "µM"}]}, {"compound": "C[n+]1ccccc1CC(=O)c1ccc(Br)cc1", "note": "[S 24795, 2-[2-(4-bromophenyl)-2-oxoethyl]-1-methylpyridinium]", "values": [{"measurement": "Activation n (Hill coefficient, best fit)", "setting": "α7 nAChR [9]", "result": 0.85}, {"measurement": "best fit IC50 relative to EC50 (higher)", "setting": "α7 nAChR [9]", "result": 70, "unit": "fold"}, {"measurement": "EC50", "setting": "α7 nAChR [9]; net charge, read-out: Activation EC50 (best fit)", "result": 14, "unit": "µM"}, {"measurement": "Inhibition Inmax of the partial agonist (best fit)", "setting": "α7 nAChR [9]; [11]", "result": 1.0}, {"measurement": "Inhibition n (Hill coefficient, best fit)", "setting": "α7 nAChR [9]; [11]", "result": 0.26}, {"measurement": "IC50", "setting": "α7 nAChR [9]; noncompetitive inhibition factor, read-out: Inhibition IC50 of the partial agonist (best fit)", "result": 1000, "unit": "µM"}, {"measurement": "Activation Rmax (best fit)", "setting": "α7 nAChR [9]; relative to ACh maximum, ACh constrained to 1", "result": 0.20}, {"measurement": "IC50", "setting": "α7 nAChR [4]; read-out: IC50 for the inhibition of ACh evoked responses by bath applications of agonists and partial agonists, Table 2, after 30±4 min bath application, 60 μM ACh, * = inhibition following a phase of potentiation", "result": 15, "unit": "µM"}, {"measurement": "IC50", "setting": "[5]; read-out: IC50 for the inhibition of ACh evoked responses by bath applications of agonists and partial agonists, Table 2, after 30±4 min bath application, 10 μM ACh", "result": 53, "unit": "µM"}, {"measurement": "IC50", "setting": "[6]; read-out: IC50 for the inhibition of ACh evoked responses by bath applications of agonists and partial agonists, Table 2, after 30±4 min bath application, 30 μM ACh", "result": 36, "unit": "µM"}]}]}
